Experimental data taken from patent US10538535B2, “Antitumoral compounds” (priority 2017, dated 2020).
Like-named read-outs stand apart in the source and are kept apart here.

Tests used:
H526 tumors = experiment: In vivo xenograft, human lung (SCLC) H526; conditions: iv Days 0, 7, 14, 12-R 0.05 mg/kg, Compound D 0.5 mg/kg
Method: (§4) Female athymic nu/nu mice (Harlan Laboratories Models, S. L. Barcelona, Spain or Envigo, Spain) were utilized for all experiments. Animal were housed in individually ventilated cages Sealsafe® Plus, Techniplast S.P.A.), up to ten per cage on a 12-hour light-dark cycle at 21-23° C. and 40-60% humidity. Mice were allowed free access to irradiated standard rodent diet (Tecklad 2914C) and sterilized water. Animals were acclimated for at least 5 days prior to tumor implantation with a tumor cell suspension.
H526 cells were grown as a suspension and maintained by addition of fresh medium, as the cell density increases, every 2 to 3 days. Every week, culture was reestablished by centrifugation of the suspension with subsequent resuspension in fresh medium at a concentration of 1×10^5 cell/mL. Each animal was subcutaneously implanted (on the right flank using 26 G needle and a 1 cc syringe) at 4-6 weeks of age with 5×10^6 H526 cells suspended in 0.05 mL of a solution consisting of 50% Matrigel® (Corning Incorporated Life Sciences) and 50% medium without serum or antibiotics.
(§5) Treatment tolerability was assessed by monitoring body weight evolution, clinical signs of systemic toxicity, as well as evidences of local damage in the injection site.
(§6) Treatments producing >20% lethality and/or 20% net body weight loss were considered toxic.

PSN1 cells = experiment: cells; conditions: for CC50: read-out: LC50
Procedure, shortened: (§1)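 SRB read-out after 72 h exposure; fixed untreated plate served as time-zero reference. Compounds ranged 10 to 0.003 μg/mL over ten 2/5 dilutions, triplicate wells, 1% final DMSO, DMEM with 10% FBS. Values via NCI algorithm, four-parameter logistic regression.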

H82 tumors = experiment: In vivo xenograft, human lung (SCLC) H82; conditions: iv Days 0, 7, 14, 12-R 0.05 mg/kg, Compound D 0.5 mg/kg
Method: as §4
H82 cells were grown as a suspension and maintained by addition of fresh medium, as the cell density increases, every 2 to 3 days. Every week, culture was reestablished by centrifugation of the suspension with subsequent resuspension in fresh medium at a concentration of 1×10^5 cell/ml. Animals were subcutaneously implanted (on the right flank using 26 G needle and a 1 cc syringe) at 4-6 weeks of age with 5×10^6 H82 cells, suspended in 0.05 mL of a solution consisting of 50% Matrigel® (Corning Incorporated Life Sciences) and 50% medium without serum or antibiotics.
as §5
(§7) In xenograft studies with other cell lines: • Tumor volume was calculated using the equation (a·b^2)/2, where a: length (longest diameter) and b: width (shortest diameter) were measured in mm by using digital caliper (Fowler Sylvac, S235PAT).
as §6
(§8) Tables and figures summarize the data obtained from complete experimental groups, i.e. those groups keeping the initial number of animals, n=8-10.

PC-3 tumors = conditions: 12-R 0.05 mg/kg
Text: In this model, instead of male, female animals were used because PC-3 growth is not hormone dependant.

[1] = MTMD (Maximum Tolerated Multiple Dose) determination, iv weekly x3; format: in vivo; conditions: mice; iv/Q7dx3
Text: (§2) Female CD-1 or Athymic Nude-Fox1 nu/nu mice (Envigo) were utilized for all experiments. […] Animals were acclimated for five days prior to being individually tattoo-identified. Animal protocols were reviewed and approved according to the regional Institutional Animal Care and Use Committees.
(§3) Mice were randomly allocated into experimental groups and intravenously administered, once for the MTD (Maximum Tolerated Dose) determination or one administration a week during three consecutive weeks, for the MTMD (Maximum Tolerated Multiple Dose) determination study. The animals were administered with white formulation or with compound dissolved in the experimental formulation at different concentrations. The volume administered was always 10 mL/kg. Once administered, animals were monitored for clinical signs of systemic toxicity, changes in body weight and mortality up to 14 days after the administration.

A549 cells = experiment: cells; conditions: for CC50: read-out: LC50
Procedure, shortened: as §1

HT29 cells = experiment: cells; conditions: for CC50: read-out: LC50
Procedure, shortened: as §1

MDA-MB-231 cells = experiment: cells; conditions: for CC50: read-out: LC50
Procedure, shortened: as §1

[2] = MTD (Maximum Tolerated Dose) determination, single iv administration; format: in vivo; conditions: mice, iv/SD
Text: as §2, §3

HT1080 tumors = experiment: In vivo xenograft, human fibrosarcoma HT1080; conditions: HT1080; Day 28; iv Days 0, 7, 14; 4-R 0.30 mg/kg
Method: Female athymic nu/nu mice (Harlan Laboratories Models, S. L. Barcelona, Spain or Envigo, Spain) were utilized for all experiments. Animal were housed in individually ventilated cages Sealsafe® Plus, Techniplast S.P.A.), up to ten per cage on a 12-hour light-dark cycle at 21-23° C. and 40-60% humidity. […] Animals were acclimated for at least 5 days prior to tumor implantation with a tumor cell suspension.
HT1080 cells were maintained in vitro at 37° C. with 5% CO2 in Minimum Essential Medium Eagle (MEME) (Sigma-Aldrich, Co). Each animal was orthotopically implanted into gastroecnemius muscle by an intramuscular injection using a 26 G needle and a 1 cc syringe at 4-6 weeks of age, with 10×10^6 HT1080 cells, suspended in serum free medium, without antibiotics.
as §5
In xenograft studies with HT1080 cell line: • Total diameter (tumor+leg) measurements were determined by using digital caliper (Fowler Sylvac, S235PAT).
as §6

[3] = MDA-MB-231, 72 hours treatment, SRB

Method for DU-145 tumors: as §4
Culture cells were passaged every 3 to 5 days upon reaching confluence Each male athymic mice was subcutaneously implanted (on the right flank using a 26 G needle and a 1 cc syringe) at 4-6 weeks of age with 5×10^6 DU-145 cells suspended in 0.05 mL of a solution consisting of 50% Matrigel® Matrix (Corning Incorporated Life Sciences) and 50% medium without serum or antibiotics.
as §5, §7, §6, §8

SMILES: COc1c(C)cc2c(c1O)[C@@H]1[C@@H]3[C@@H]4SC[C@]5(N[C@@H](CN)Cc6c5[nH]c5ccccc65)C(=O)OC[C@@H](c5c6c(c(C)c(OC(C)=O)c54)OCO6)N3[C@@H](O)[C@H](C2)N1C [Compound 12-R]
- Median Tumor Volume (H526 tumors; Table 32, Day 0.0): 214.20 mm^3
- Median Tumor Volume (H526 tumors; Table 32, Day 2.0): 404.50 mm^3
- Median Tumor Volume (H526 tumors; Table 32, Day 4.0): 680.50 mm^3
- Median Tumor Volume (H526 tumors; Table 32, Day 7.0): 995.20 mm^3
- Median Tumor Volume (H526 tumors; Table 32, Day 9.0): 1290.50 mm^3
- Median Tumor Volume (H526 tumors; Table 32, Day 11.0): 1568.00 mm^3
- Median Tumor Volume (H526 tumors; Table 32, Day 14.0): 2025.00 mm^3
- CC50 (PSN1 cells; Homo sapiens, PSN1, 72 h): > 128 nM
- Median Tumor Volume (H82 tumors; Table 33, Day 0.0): 170.50 mm^3
- Median Tumor Volume (H82 tumors; Table 33, Day 2.0): 381.40 mm^3
- Median Tumor Volume (H82 tumors; Table 33, Day 5.0): 793.20 mm^3
- Median Tumor Volume (H82 tumors; Table 33, Day 7.0): 1187.20 mm^3
- Median Tumor Volume (H82 tumors; Table 33, Day 9.0): 1699.30 mm^3
- Median Tumor Volume (H82 tumors; Table 33, Day 12.0): 2125.60 mm^3
- Median Tumor Volume (PC-3 tumors; Day 0, iv Days 0, 7 and 14, 12-S […]): 129.0 mm^3
- Median Tumor Volume (PC-3 tumors; Day 2, iv Days 0, 7 and 14, 12-S […]): 136.2 mm^3
- Median Tumor Volume (PC-3 tumors; Day 4, iv Days 0, 7 and 14, 12-S […]): 144.2 mm^3
- Median Tumor Volume (PC-3 tumors; Day 7, iv Days 0, 7 and 14, 12-S […]): 172.2 mm^3
- Median Tumor Volume (PC-3 tumors; Day 11, iv Days 0, 7 and 14, 12-S […]): 183.6 mm^3
- Median Tumor Volume (PC-3 tumors; Day 14, iv Days 0, 7 and 14, 12-S […]): 205.2 mm^3
- Median Tumor Volume (PC-3 tumors; Day 16, iv Days 0, 7 and 14, 12-S […]): 256.0 mm^3
- Median Tumor Volume (PC-3 tumors; Day 18, iv Days 0, 7 and 14, 12-S […]): 325.7 mm^3
- Median Tumor Volume (PC-3 tumors; Day 21, iv Days 0, 7 and 14, 12-S […]): 322.2 mm^3
- Median Tumor Volume (PC-3 tumors; Day 23, iv Days 0, 7 and 14, 12-S […]): 407.8 mm^3
- Median Tumor Volume (PC-3 tumors; Day 25, iv Days 0, 7 and 14, 12-S […]): 419.9 mm^3
- Median Tumor Volume (PC-3 tumors; Day 29, iv Days 0, 7 and 14, 12-S […]): 459.1 mm^3
- Median Tumor Volume (PC-3 tumors; Day 32, iv Days 0, 7 and 14, 12-S […]): 512.1 mm^3
- Median Tumor Volume (PC-3 tumors; Day 35, iv Days 0, 7 and 14, 12-S […]): 579.2 mm^3
- Median Tumor Volume (PC-3 tumors; Day 37, iv Days 0, 7 and 14, 12-S […]): 613.8 mm^3
- Median Tumor Volume (PC-3 tumors; Day 39, iv Days 0, 7 and 14, 12-S […]): 764.1 mm^3
- Median Tumor Volume (PC-3 tumors; Day 42, iv Days 0, 7 and 14, 12-S […]): 785.0 mm^3
- Median Tumor Volume (PC-3 tumors; Day 44, iv Days 0, 7 and 14, 12-S […]): 845.5 mm^3
- Median Tumor Volume (PC-3 tumors; Day 46, iv Days 0, 7 and 14, 12-S […]): 748.0 mm^3
- Median Tumor Volume (PC-3 tumors; Day 49, iv Days 0, 7 and 14, 12-S […]): 808.7 mm^3
- Median Tumor Volume (PC-3 tumors; Day 51, iv Days 0, 7 and 14, 12-S […]): 855.8 mm^3
- Median Tumor Volume (PC-3 tumors; Day 56, iv Days 0, 7 and 14, 12-S […]): 1125.2 mm^3

SMILES: COc1ccc2oc3c(c2c1)CCN[C@]31CS[C@@H]2c3c(OC(C)=O)c(C)c4c(c3[C@H](COC1=O)N1[C@@H]2[C@H]2c3c(cc(C)c(OC)c3O)C[C@@H]([C@@H]1O)N2C)OCO4 [Compound 35]
- MTMD [1]: 0.25 mg/kg
- GI50 (A549 cells; Homo sapiens, A549, 72 h): 8.14 nM
- CC50 (A549 cells; Homo sapiens, A549, 72 h): > 127 nM
- IC (TGI) (A549 cells; Homo sapiens, A549, 72 h, read-out: TGI): 8.78 nM
- GI50 (HT29 cells; Homo sapiens, HT-29, 72 h): 7.89 nM
- CC50 (HT29 cells; Homo sapiens, HT-29, 72 h): > 127 nM
- IC (TGI) (HT29 cells; Homo sapiens, HT-29, 72 h, read-out: TGI): 8.65 nM
- GI50 (PSN1 cells; Homo sapiens, PSN1, 72 h): 6.24 nM
- CC50 (PSN1 cells; Homo sapiens, PSN1, 72 h): 14 nM
- IC (TGI) (PSN1 cells; Homo sapiens, PSN1, 72 h, read-out: TGI): 9.03 nM
- GI50 (MDA-MB-231 cells; Homo sapiens, MDA-MB-231, 72 h): 4.58 nM
- CC50 (MDA-MB-231 cells; Homo sapiens, MDA-MB-231, 72 h): 16.5 nM
- IC (TGI) (MDA-MB-231 cells; Homo sapiens, MDA-MB-231, 72 h, read-out: TGI): 8.27 nM

SMILES: COc1ccc2[nH]c3c(c2c1)C[C@@H](CO)N[C@]31CS[C@@H]2c3c(OC(C)=O)c(C)c4c(c3[C@H](COC1=O)N1[C@@H]2[C@H]2c3c(cc(C)c(OC)c3O)C[C@@H]([C@@H]1O)N2C)OCO4 [Compound 19-S]
- MTD [2]: 0.5 mg/kg
- MTMD [1]: 0.75 mg/kg
- GI50 (A549 cells; A549, 72 hours treatment, SRB): 3.07 nM
- TGI (A549 cells; A549, 72 hours treatment, SRB): 3.31E−09 Molar
- CC50 (A549 cells; A549, 72 hours treatment, SRB): > 123 nM
- GI50 (HT29 cells; HT29, 72 hours treatment, SRB): 1.35 nM
- TGI (HT29 cells; HT29, 72 hours treatment, SRB): 1.60E−09 Molar
- CC50 (HT29 cells; HT29, 72 hours treatment, SRB): > 123 nM
- GI50 (PSN1 cells; PSN1, 72 hours treatment, SRB): 2.95 nM
- TGI (PSN1 cells; PSN1, 72 hours treatment, SRB): 3.19E−09 Molar
- CC50 (PSN1 cells; PSN1, 72 hours treatment, SRB): > 123 nM
- GI50 (MDA-MB-231 cells; [3]): 1.96 nM
- TGI (MDA-MB-231 cells; [3]): 3.31E−09 Molar
- CC50 (MDA-MB-231 cells; [3]): 11 nM

SMILES: COc1c(C)cc2c(c1O)[C@@H]1[C@@H]3[C@@H]4SC[C@]5(N[C@@H](CO)Cc6c5[nH]c5ccccc65)C(=O)OC[C@@H](c5c6c(c(C)c(OC(C)=O)c54)OCO6)N3[C@@H](O)[C@H](C2)N1C [Compound 4-R]
- MTD at 14 days ([2]; female, mouse, in vivo): 0.25 mg/kg
- MTMD [1]: 0.30 mg/kg
- CC50 (A549 cells; Homo sapiens, A549, 72 h): > 127 nM
- CC50 (HT29 cells; Homo sapiens, HT-29, 72 h): > 127 nM
- Total diameter (tumor + leg) (HT1080 tumors): 18.0 mm

SMILES: COc1ccc2[nH]c3c(c2c1)C[C@H](CO)N[C@]31CS[C@@H]2c3c(OC(C)=O)c(C)c4c(c3[C@H](COC1=O)N1[C@@H]2[C@H]2c3c(cc(C)c(OC)c3O)C[C@@H]([C@@H]1O)N2C)OCO4 [Compound 19-R]
- MTD [2]: 0.15 mg/kg
- MTMD [1]: 0.15 mg/kg
- TGI (A549 cells; A549, 72 hours treatment, SRB): 3.56E−09 Molar
- CC50 (A549 cells; A549, 72 hours treatment, SRB): > 123 nM
- TGI (PSN1 cells; PSN1, 72 hours treatment, SRB): 1.35E−09 Molar
- TGI (MDA-MB-231 cells; [3]): 1.35E−09 Molar
- CC50 (MDA-MB-231 cells; [3]): > 123 nM

SMILES: COc1c(C)cc2c(c1O)[C@@H]1[C@@H]3[C@@H]4SC[C@]5(N[C@H](CO)Cc6c5oc5ccccc65)C(=O)OC[C@@H](c5c6c(c(C)c(OC(C)=O)c54)OCO6)N3[C@@H](O)[C@H](C2)N1C [Compound 39-S]
- Median Tumor Volume (DU-145 tumors; Day 0, 39-S 1.00 mg/Kg iv Days 0, 7 and 14): 179.9 mm^3
- Median Tumor Volume (DU-145 tumors; Day 2, 39-S 1.00 mg/Kg iv Days 0, 7 and 14): 199.9 mm^3
- Median Tumor Volume (DU-145 tumors; Day 4, 39-S 1.00 mg/Kg iv Days 0, 7 and 14): 222.2 mm^3
- Median Tumor Volume (DU-145 tumors; Day 7, 39-S 1.00 mg/Kg iv Days 0, 7 and 14): 340.5 mm^3
- Median Tumor Volume (DU-145 tumors; Day 9, 39-S 1.00 mg/Kg iv Days 0, 7 and 14): 354.1 mm^3
- Median Tumor Volume (DU-145 tumors; Day 11, 39-S 1.00 mg/Kg iv Days 0, 7 and 14): 349.7 mm^3
- Median Tumor Volume (DU-145 tumors; Day 14, 39-S 1.00 mg/Kg iv Days 0, 7 and 14): 429.1 mm^3
- Median Tumor Volume (DU-145 tumors; Day 16, 39-S 1.00 mg/Kg iv Days 0, 7 and 14): 454.8 mm^3
- Median Tumor Volume (DU-145 tumors; Day 18, 39-S 1.00 mg/Kg iv Days 0, 7 and 14): 449.7 mm^3
- Median Tumor Volume (DU-145 tumors; Day 21, 39-S 1.00 mg/Kg iv Days 0, 7 and 14): 517.5 mm^3
- Median Tumor Volume (DU-145 tumors; Day 23, 39-S 1.00 mg/Kg iv Days 0, 7 and 14): 568.5 mm^3
- Median Tumor Volume (DU-145 tumors; Day 25, 39-S 1.00 mg/Kg iv Days 0, 7 and 14): 629.4 mm^3
- Median Tumor Volume (DU-145 tumors; Day 28, 39-S 1.00 mg/Kg iv Days 0, 7 and 14): 775.7 mm^3
- CC50 (HT29 cells; Homo sapiens, HT-29, 72 h): > 127 nM
